# Read-outs that look alike come from different tables or passages of the source.
# Legend:
# [1] = test system: EAAT2; conditions: cited from earlier work
# [2] = test system: EAAT1; conditions: cited from earlier work
# [3] = test system: EAAT1; conditions: glutamic acid uptake assay, ref Vallejo-Illarramendi et al. (2005); cited from earlier work
# [4] = test system: EAAT3; conditions: cited from earlier work
# [5] = test system: EAAT3; conditions: radio-labeled uptake, COS7 cells, ref Arriza et al. (1994); cited from earlier work
# [6] = test system: EAAT2; set-up: method as in Arriza et al. (1994); conditions: radio-labeled uptake, COS7 cells, ref Arriza et al. (1994); cited from earlier work
# [7] = test system: EAAT1; conditions: radio-labeled uptake, COS7 cells, ref Arriza et al. (1994); cited from earlier work
# [8] = target: T1, SLC1A2 (EAAT2) (Homo sapiens, UniProt P43004); experiment: SSM-based electrophysiology (SURFE2R 96 SE), EAAT2 membrane fragments; assay type: biochemical; conditions: glutamic acid up to 500 µM, membrane 4 µg/well, read-out: SURFE^2R Km
# T1 construct: host or cells: HEK293-JumpIn, doxycycline-induced
# T1 sequence (P43004 whole entry, the tested form may be a part): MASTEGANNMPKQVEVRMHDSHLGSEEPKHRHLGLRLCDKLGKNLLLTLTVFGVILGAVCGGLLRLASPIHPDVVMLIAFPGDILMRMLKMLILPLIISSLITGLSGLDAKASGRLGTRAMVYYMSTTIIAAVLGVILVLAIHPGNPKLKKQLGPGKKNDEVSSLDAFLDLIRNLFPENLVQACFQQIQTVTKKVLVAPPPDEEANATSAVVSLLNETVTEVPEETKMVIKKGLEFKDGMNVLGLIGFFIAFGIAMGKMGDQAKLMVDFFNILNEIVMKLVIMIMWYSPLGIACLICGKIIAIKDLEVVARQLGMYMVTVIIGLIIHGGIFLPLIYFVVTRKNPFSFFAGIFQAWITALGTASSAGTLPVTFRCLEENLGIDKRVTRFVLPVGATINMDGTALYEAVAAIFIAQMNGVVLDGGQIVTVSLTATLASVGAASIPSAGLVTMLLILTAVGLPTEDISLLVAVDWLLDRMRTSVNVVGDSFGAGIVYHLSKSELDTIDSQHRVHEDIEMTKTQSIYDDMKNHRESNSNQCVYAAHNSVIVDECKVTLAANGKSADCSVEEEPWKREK
# [9] = test system: EAAT1; conditions: oocytes, Voltage-Clamp, ref Arriza et al. (1994); cited from earlier work
# [10] = test system: EAAT3; conditions: oocytes, Voltage-Clamp, ref Arriza et al. (1994); cited from earlier work
# [11] = test system: EAAT2; set-up: method as in Arriza et al. (1994); conditions: oocytes, Voltage-Clamp, ref Arriza et al. (1994); cited from earlier work
# [12] = FLIPR membrane potential assay, ref Faure et al. (2006)
# [13] = similar methodologies (FLIPR), ref Alaux et al. (2005)
smiles,measurement,setting,value
"N[C@@H](CCC(=O)O)C(=O)O [glutamic acid, L-glutamic acid]",Km,[1]; [12],21 µM
same,Km,[1]; [13],21 µM
same,Km,[2]; [12],7.9 µM
same,Km,[2]; [13],9.2 µM
same,Km,[3],27.5 ± 2.3 µM
same,Km,[4]; [12],9.9 µM
same,Km,[4]; [13],25 µM
same,Km,[5],62 ± 8 µM
same,Km,[6],97 ± 4 µM
same,Km,[7],48 ± 10 µM
same,Km,[8],9.5 µM
same,Km,[9],20 ± 3 µM
same,Km,[10],28 ± 6 µM
same,Km,[11],18 ± 3 µM
